Data reported in patent US20110288036A1, “Methods for Treating or Preventing Vascular Graft Failure” (priority 2010, published 2011).
Entries after “also recorded” stand apart in the source; their conditions may differ.

Assays:
[1] = test system: vein graft (inferior vena cava) intimal hyperplasia; experiment: Mouse vein graft model; format: in vivo
Experimental: 12-week-old C57BL/6 wild type mice (Harlan) were used for all experiments, as previously described (Muto, A. et al., J. Exp. Med., 2011, 208(3): 561-575, incorporated herein by reference in its entirety). […] Prior to implantation, the vein was treated ex vivo with 100 μM of MMI-0100 ([…] (SEQ ID NO: 1)) peptide solution, or control PBS solution, for 20 minutes at room temperature.
To implant the vein graft, a midline incision was made in the abdomen of a recipient mouse and the infrarenal abdominal aorta was exposed. The abdominal aorta was temporarily occluded with atraumatic micro-clamps and a segment corresponding to the length of the vein graft was excised. The vein was sutured into the arterial circulation using 10-0 nylon in continuous fashion.
Vein grafts were followed postoperatively using the Vevo770® High-Resolution Imaging System (VisualSonics, Toronto, Canada), with weekly measurements of graft wall thickness. At 28 days after surgery, mice were sacrificed to allow explantation of the vein graft. Tissue was either frozen with RNA stabilization reagent (Qiagen) or explanted for paraffin embedding after circulatory flushing with ice-cold PBS followed by 4% paraformaldehyde perfusion-fixation. Vein graft wall thickness, lumen diameter, and outer wall diameter (elastic lamina) were measured in elastin-stained sections using computer morphometry (ImageJ).
Vein graft samples were fixed as described above and harvested for histology. Specimens were embedded in paraffin and cut in cross section (5 μm). Hematoxylin & Eosin, Masson trichrome, and van Gieson elastin staining were performed for all samples. Cells were cultured on gelatin-coated cover slips and fixed with methanol.
All sections were treated for antigen retrieval using 10 mmol/L citrate buffer (pH 6.0) prior to boiling or proteinase K (20 μg/ml) treatment, at room temperature, for 10-15 minutes. Immunohistochemical detection was performed using DAB as well as NovaRED® substrate (Vector). Sections were counterstained with Mayer's Hematoxylin.
The efficacy of MMI-0100 ([…]; SEQ ID NO: 1) in treating intimal hyperplasia in vivo was examined using a mouse model of vein bypass graft. […] The IVC was soaked in a 100 μM solution of MMI-0100 ([…]; SEQ ID NO: 1) at room temperature for 20 minutes prior to implantation into a host (C57BL/6J) mouse to bypass the infrarenal aorta. Five treated and six untreated veins were transplanted for a total of 11 transplanted animals. Vein graft wall thickness was determined using a […] ultrasound imaging system at each week.
In order to further confirm the inhibitory effects of MMI-0100 ([…]; SEQ ID NO: 1) on intimal hyperplasia development in an […] model, the effect of MMI-0100 ([…]; SEQ ID NO: 1) was investigated in a follow-up study using a mouse model of vein graft adaptation. To this end, vein grafts were treated with PBS or 100 μM of MMI-0100 ([…]; SEQ ID NO: 1) for 20 minutes prior to implantation; the thickness of the vein grafts then was examined weekly with ultrasound.

[2] = test system: mouse lung endothelial cells (MLEC); experiment: MCP-1 immunoassay of MLEC conditioned medium; format: cell-based; conditions: even at high doses
Experimental: Monocyte Chemotractic Protein-1 (MCP-1) production from mouse lung endothelial cells (MLEC) was analyzed using conditioned culture medium by Quantikine® Mouse CCL/JE/MCP-1 Immunoassay (R&D Systems) following the manufacturer's instructions. Briefly, the assay employs a quantitative sandwich enzyme immunoassay technique in which a monoclonal antibody specific for MCP-1 has been pre-coated onto a microplaste. Standards and samples are pipetted into the wells and any MCP-1 present is bound by the immobilized antibody. After washing away any unbound substances, an enzyme-linked polyclonal antibody specific for MCP-1 is added to the wells. Following a wash to remove any unbound antibody-enzyme reagent, a substrate solution is added to the wells and color develops in proportion to the amount of MCP-1 bound in the initial step. The color development is stopped and the intensity of the color is measured at 450 nm, with wavelength correction at 540 nm or 570 nm.

[3] = test system: human coronary artery endothelial cells (HCAEC); experiment: IL-6 and IL-8 ELISA in TNF-α-stimulated HCAEC; format: cell-based; conditions: 0.5 mM, 24 hours after 6 hour TNF-α
Experimental: Primary human coronary artery endothelial cells (HCAEC) were cultured and seeded onto a 96-well plate, using methods described in the MTS proliferation assay above. Cells were again stimulated with 20 ng/ml of TNF-α for 6 hours and then treated with MMI-0100 (SEQ ID NO: 1) for approximately 24 hours. Supernatants were then collected and analyzed for drug effect on inflammatory cytokines.
IL-6 (Cat #: 900-K16; Lot #: 0909016) and IL-8 (Cat #: 900-K18; Lot #: 0209018) ELISA kits (Peprotech; Rocky Hill, N.J.) were used to measure levels of these cytokines from HCAEC supernatants following treatment with MMI-0100 ([…]; SEQ ID NO: 1). The Human IL-6 ELISA development kit contains the key components required for the quantitative measurement of natural and/or recombinant hIL-6 in a sandwich ELISA format within the range of 32-2000 pg/ml. Human IL-8 ELISA development kit contains the key components required for the quantitative measurement of natural and/or recombinant hIL-8 in a sandwich ELISA format within the range of 16-1000 pg/ml. […]
Briefly, 10 μl of supernatant was diluted with 90 μl of diluents; 3 replicates of each sample were used. Data were collected at 405 nm with correction at 650 nm on a plate reader. Each plate was monitored for 1 hour with readings taken every 5 minutes. Concentrations of IL-6 and IL-8 in test samples were determined by extrapolating from a standard curve. […]

Sequence: YARAAARQARAKALARQLGVAA [MMI-0100]
- reduced wall thickness compared to control grafts (histological staining) ([1]; follow-up study, 100 μM 20 minutes ex vivo, 4 weeks): 72%
- F4/80-positive cells infiltrating into vein grafts ([1]; follow-up study, 100 μM 20 minutes ex vivo, 4 weeks, immunohistochemistry): fewer F4/80-positive cells
- vein graft wall thickness ratio ([1]; follow-up study, 100 μM 20 minutes ex vivo, 4 weeks, ultrasound, control 4.7-fold): 2.6 fold
- vein graft wall thickness, weekly ultrasound ([1]; follow-up study, 100 μM 20 minutes ex vivo, weeks 1-4): diminished wall thickness at all postoperative time points
- vessel wall thickness relative to originally harvested IVC ([1]; graft soaked 100 μM 20 minutes, 4 weeks, ultrasound, control almost five times): about 2.5 times
- MCP-1 production [2]: did not stimulate MCP-1 production, even at high doses
- TNF-α-induced IL-6 expression [3]: reduced the level of TNF-α-induced IL-6 expression to that of the untreated control
- TNF-α-induced IL-8 expression [3]: did not affect the level of TNF-α-induced IL-8 expression; also recorded: no effect
